From US6180624A (priority 1994, dated 2001)
Entries after “also recorded” stand apart in the source; their conditions may differ. Read-outs that look alike come from different tables or passages of the source.

Columns and labels:
formalin test = conditions: Garret et al.; cited from earlier work
[1] = tested on: phenylbenzoquinone-induced writhing; conditions: Garret et al.; cited from earlier work
[2] = tested on: nociceptive spinal reflexes; experiment: animal or person; format: in vivo, rabbit (male New Zealand white); conditions: for ED50: Oryctolagus cuniculus, iv; for Effect on baseline, facilitation and wind-up responses: all three measures, FIG. 1, 2, 4
Experimental: Male New Zealand white rabbits (2.5-3.5 kg) were anaesthetised by an injection of 0.9% alphaxalone and 0.3% alphadolone (Saffan) directly into an ear vein. A cervical spinalization was performed and the cerebral cortex removed (decerebration) allowing anaesthesia to be discontinued. The left hind limb was shaved and a bipolar recording electrode inserted into the biceps femoris/semitendinous muscle. A noxious stimulus was applied to the area of the receptive field of the motor units to the skin of the foot. Single shocks (1 ms square pulses; 2 times threshold) were applied at a rate of 1 per minute. The conditioning stimulus was 20 of these impulses at a rate of 1 Hz, producing wind-up. The baseline parameters were again applied 20 seconds following the conditioning stimulus, the first of these stimuli is termed the facilitation of the baseline response. Injections were administered at 15 minute intervals, the first two always being the relevant drug vehicle. The time-course of events throughout the experiment was as shown below:
t=0 mins: Dose with vehicle (i.v.).
t=40 sec: Begin baseline stimulation (1 per minute).
t=10 mins: Conditioning stimulus applied (20 @ 1 Hz; wind-up).
t=10 mins 40 secs: Baseline stimulation resumes (Initial baseline response equates to facilitation).
t=15 mins: Dose with vehicle (i.v.).
t=25 mins: Conditioning stimulus applied.
t=25 mins 40 secs: Baseline stimulation resumes.
t=30 mins: Dose with test compound (i.v.).
t=40 mins: Conditioning stimulus applied.
t=40 mins 40 secs: Baseline stimulation resumes.
t=45 mins and every 15 minutes thereafter: Drug treatment (i.v.).
t=55 mins and every 15 minutes thereafter: Conditioning stimulus applied.
40 seconds after each conditioning stimulus baseline stimulation is resumed.
In each experiment the values obtained to the second vehicle were used as the control response. Each of the values obtained with drug treatment was expressed as a percentage of the control response. In the case of changes in baseline the last four values obtained prior to the conditioning response were taken to represent baseline activity. The effect of drug treatment was determined by comparing the baseline post-drug to the control baseline. Four rabbits were used in each experiment unless otherwise stated.

morphine-induced emesis = conditions: ferrets; cited from earlier work
[3] = baseline, i.v., decerebrate, spinalized rabbit, read-out: Approximate ID50, inhibition of baseline firing rate
[4] = facilitation, i.v., decerebrate, spinalized rabbit, read-out: Approximate ID50, inhibition of facilitation
[5] = wind-up, i.v., decerebrate, spinalized rabbit, read-out: Approximate ID50, inhibition of wind-up

## COc1ccccc1CC(=N)N1C[C@@H]2C(=O)CCC(c3ccccc3)(c3ccccc3)[C@@H]2C1 [RP 67,580]
Formalin test
  Analgesia potency relative to morphine, formalin test: potency comparable to that of morphine
[1]
  Analgesia potency relative to morphine, phenylbenzoquinone-induced writhing: potency comparable to that of morphine

## COc1ccccc1CN[C@@H]1CCCN[C@@H]1c1ccccc1 [CP-100,263]
[2]; [3]
  ED50: > 1 mg/kg
[2]; [4]
  ED50: > 1 mg/kg
[2]; [5]
  ED50: > 1 mg/kg
[2]; i.v.
  Effect on baseline, facilitation and wind-up responses: did not inhibit baseline, facilitation or wind-up responses; also recorded: lack of effect

## CN1CC[C@]23c4c5ccc(O)c4O[C@H]2[C@@H](O)C=C[C@H]3[C@H]1C5 [Morphine, morphine]
[2]; baseline, i.v., decerebrate, spinalized rabbit
  Approximate ID50, inhibition of baseline firing rate: 0.5 mg/kg
[2]; facilitation, i.v., decerebrate, spinalized rabbit
  Approximate ID50, inhibition of facilitation: 0.5 mg/kg
[2]; morphine 0.5 mg/kg i.v. prior to CP-99,994 dose response curve, FIG. 3
  Effect of morphine pre-treatment on CP-99,994 induced inhibition of each measure: failed to attenuate the CP-99,994 induced inhibition of each measure
[2]; wind-up, i.v., decerebrate, spinalized rabbit
  Approximate ID50, inhibition of wind-up: 0.5 mg/kg

## COc1ccccc1CN[C@H]1CCCN[C@H]1c1ccccc1 [CP-99,994]
morphine-induced emesis
  Emetic response to morphine: attenuate the emetic response to morphine
[2]; CP-99,994 1-100 μg/kg i.v.
  Facilitation of nociceptive spinal reflexes: reduce facilitation of nociceptive spinal reflexes
[2]; [3]
  ED50: 0.05 mg/kg
[2]; [4]
  ED50: 0.008 mg/kg
[2]; [5]
  ED50: 0.01 mg/kg
[2]; i.v.
  Effect on baseline, facilitation and wind-up responses: dose-dependent reduction in all three measures
[2]; rabbit, in vivo
  Antagonism of the anti-nociceptive effects of morphine by CP-99,994: not antagonised
  Effect of CP-99,994 and morphine given together on the nociceptive reflex: appeared to be additive to those of morphine
